Measurements published in patent US6458872B1, “Benzotriazole UV absorbers having enhanced durability” (Ciba Specialty Chemicals Corporation, priority 1997, dated 2002).

Experiments:
[1] = UV absorption data (Example 74); format: physicochemical; settings: for Absorbance @ 375 nm: 20 mg/l concentrations, not the molar extinction values
Method: In the following examples the absorbance at 375 nm is reported for 20 mg/l concentrations. This is not the molar extinction values.

[2] = Yellowness color of solutions in butyl acetate, Macbeth Color-Eye (Example 75); format: physicochemical; settings: 30 mg/100 mL in butyl acetate; for DE: corresponding Yellowness Index value; for b: yellowness, Macbeth Color-Eye
Method: The following examples show the difference in color between some of the instant compounds as measured by a Macbeth Color-Eye instrument at a concentration of 30 mg/100 mL in butyl acetate. […] In the table, the compounds are listed by increasing b value. The instrument measures yellowness as b and DE is the corresponding Yellowness Index value.

[3] = Durability in polycarbonate film, 2000 hours (Example 81); format: physicochemical; settings: for % Loss / Absorbance (max) Loss units: 2000 hrs; for % Loss / Absorbance (max) Loss units / Absorbance (max) 2000 hrs: BB 2.19 wt %, J 1.81 wt %; for Absorbance (max) 0 hrs: BB 2.19 wt % (352 nm), J 1.81 wt % (344 nm)
Method: The durability of representative benzotriazoles in thermoplastic substrates is determined by incorporating various test compounds into solvent cast films of poly(vinyl chloride), polycarbonate and polystyrene resins. The free standing films are mounted into cardboard holders, secured in metal frames and exposed in an Atlas […] […] Loss of UV absorber is determined by monitoring the loss of diagnostic UV absorption as described earlier. Performance is measured by a change in color or the physical integrity of the film. Polycarbonate flake (LEXAN® 145, General Electric) is dissolved in methylene chloride at room temperature along with between 1 and 3% by weight of test benzotriazole, based on the polycarbonate. Films are cast using a calibrated drawdown bar to prepare 1 mil thick film after drying. […] Weather-meter.

[4] = UV absorption data (Example 74); format: physicochemical; parameters: ε @ λ max: unit not given beside the values
[5] = Loss of UV absorber from high solids thermoset acrylic clear coat, Xenon Arc Weather-Ometer (Example 77); format: physicochemical; settings: after 1211 hours Xenon arc exposure; clear coat with 1% hindered amine; UV absorber at 5 mmol % by weight
Method: To ascertain the effect on thermal durability and loss rate from a high solids thermoset acrylic coating of various 2H-benzotriazole UV absorbers substituted by a variety of electron withdrawing and electron donating groups, the following tests are carried out.
A high solids thermoset acrylic clear coat is prepared by mixing an experimental acrylic polyol resin and hexamethoxymethylmelamine (Resimene® 747, Monsanto) at a solids ratio of 60/40. The dodecylbenzene sulfonic acid catalyst (Nacure® 5225; King Industries) is added at 0.70% by weight. A flow aid Modaflow® (Monsanto) is added at 0.25% by weight to form a model acrylic melamine resin system.
The model clear coat is reduced with xylene to a viscosity of 26-27 second using a Zahn #2 cup and applied via a conventional air spray at 50 psi (3.5 Kg/cm^2) over a 1″×3″ (2.54 cm×7.62 cm) quartz slide. Cure is achieved by baking the slide for 30 minutes at 260° F. (127° C.). The clear coat is stabilized with 1% by weight of a hindered amine light stabilizer, bis-(1-octyloxy-2,2,6,6-tetramethylpiperidin-4-yl)sebacate, (TINUVIN® 123, Ciba-Geigy). The various test benzotriazole UV absorbers are incorporated at the 5 mmol % by weight in the clear coat. The film thickness on the quartz slides range from 1.15 to 1.41 mils (0.029 to 0.036 mm).
The films on the quartz slides are weathered according to the following conditions in Xenon Arc Weather-Ometer with a controlled irradiance at 6500 W, using inner quartz and outer borosilicate S-type filter. The irradiation cycle is as follows: 40 minutes of straight irradiation with no water spray, followed by 20 minutes of light plus front spray, followed by 60 minutes of light irradiation and finally by 60 minutes dart plus rear spray (condensation). The setting is at 0.55 W/M^2 at 340 nm, 1.98 kJ/hour. In the light cycle the black panel temperature is controlled at 70±2° C. The relative humidity in the light cycle is in the range of 50-55% and in the dark cycle 100%. The absorbance of the long wavelength UV band as a function of Xenon arc weathering hours are recorded in the table below.
To follow the loss of UV absorbers from the clear coats, UV spectra are measured initially and after weathering at regular time intervals. The UV spectrophotometer measures absorbance linearly up to 5.5 absorbance units using a reference beam attenuation technique.
This is tested by following the ratio of absorbance of the band at about 300 nm and the band at about 340 nm.
The data in the table below are based on formula A after 1211 hours of exposure of the clear coats containing the test benzotriazole UV absorbers.

[6] = Loss of UV absorber from high solids thermoset acrylic melamine resin, 1002 hours (Example 79); format: physicochemical; settings: 1002 hours exposure; starting absorbance approximately 2.0
Method: Following the general procedure of Example 77, representative benzotriazole test compounds are incorporated into a high solids thermoset acrylic melamine resin at concentrations between 1.93 and 3% by weight to give equal molar concentrations of the test benzotriazole in equal film thickness and sufficient to give a starting absorbance of approximately 2.0 absorbance units. The test samples are exposed as described in Example 77 for 1002 hours.

[7] = Loss of UV absorber from high solids thermoset acrylic melamine clear coat, Xenon-Arc X180 cycle (Example 78); format: physicochemical
Description: Following the general procedure of Example 77, a number of additional benzotriazole test compounds are incorporated into a high solids thermoset acrylic melamine resin at such concentrations between 1.93 and 3% by weight to give equal molar concentrations of test benzotriazole in equal film thickness, and sufficient to give a starting absorbance of approximately 2.0 absorbance units.
The test discs are exposed in a Xenon-Arc Weather-Ometer at X180 cycle (0.45 Watts/M^2). The initial UV absorbance is measured followed by measurements at roughly 250 hour intervals for the first 2000 hours and every 500 hours thereafter. Each clear coat also contains 1% by weight of a hindered amine light stabilizer, bis-(1-octyloxy-2,2,6,6-tetramethylpiperidin-4-yl) sebacate, as well.

CC(C)(C)CC(C)(C)c1ccc(O)c(-n2nc3ccc(C(F)(F)F)cc3n2)c1 [BB, 5-trifluoromethyl-2-(2-hydroxy-5-tert-octylphenyl)-2H-benzotriazole]
Absorbance @ 375 nm [1]: 0.33
DE [2]: 0.27
b [2]: 0.20
% Loss [3]: 0.6%
Absorbance (max) Loss units [3]: 0.016
Absorbance (max) 0 hrs [3]: 2.654
Absorbance (max) 2000 hrs [3]: 2.638
ε @ λ max [4]: 14,000
λ max nm [4]: 348 nm

CC(C)(C)c1cc(CCC(=O)O)cc(-n2nc3ccc(C(F)(F)F)cc3n2)c1O [Example 39, 3-(5-Trifluoromethyl-2H-benzotriazol-2-yl)-5-tert-butyl-4-hydroxyhydrocinnamic Acid]
melting point: 166 °C

Oc1ccc(C(F)(F)F)cc1-n1nc2ccccc2n1 [EE, 2-(2-hydroxy-5-trifluoromethylphenyl)-2H-benzotriazole]
Absorbance @ 375 nm [1]: 0.03
red region absorbance ([1]; in words, upper regions (above 350 nm) of the UV spectra): poor red region absorbance
melting point: 119 to 120 °C
ε @ λ max [4]: 20,700
λ max nm [4]: 328 nm

CC(C)(C)CC(C)(C)c1ccc(O)c(-n2nc3ccccc3n2)c1 [J]
Units Absorbance Loss [5]: 0.4134
% Loss [3]: 7.5%
Absorbance (max) Loss units [3]: 0.184
Absorbance (max) 0 hrs [3]: 2.454
Absorbance (max) 2000 hrs [3]: 2.270

CCCCOc1ccc(-n2nc3ccccc3n2)c(O)c1 [Z, 2-(2-hydroxy-4-n-butoxyphenyl)-2H-benzotriazole]
Units of Absorbance Loss [6]: 1.58

CC(C)(C)CC(C)(C)c1cc(-n2nc3ccccc3n2)c(O)c(C(C)(C)c2ccccc2)c1 [Q, 2-(2-hydroxy-3-α-cumyl-5-tert-octylphenyl)-2H-benzotriazole]
Absorbance @ 375 nm [1]: 0.28
DE [2]: 0.07
b [2]: −0.02
Units Absorbance Loss [5]: 0.2492
Units Absorbance Loss ([7]; after 1253 hours of exposure, starting absorbance approximately 2.0, 1% hindered amine): 0.2351
Units Absorbance Loss ([7]; after 1264 hours of exposure): 0.2293
Units Absorbance Loss ([7]; after 1489 hours of exposure): 0.287
Units Absorbance Loss ([7]; after 1518 hours of exposure): 0.2662
Units Absorbance Loss ([7]; after 2521 hours of exposure): 0.4054
Units of Absorbance Loss [6]: 0.28
ε @ λ max [4]: 16,500
λ max nm [4]: 345 nm

CC(C)(C)CC(C)(C)c1cc(-n2nc3ccc(S(=O)(=O)c4ccccc4)cc3n2)c(O)c(C(C)(C)c2ccccc2)c1 [Compound U, 5-phenylsulfonyl-2-(2-hydroxy-3-α-cumyl-5-tert-octylphenyl)-2H-benzotriazole]
Absorbance @ 375 nm [1]: 0.50
DE [2]: 4.42
b [2]: 3.75
Units Absorbance Loss ([7]; after 1264 hours of exposure): 0.0944
Units Absorbance Loss ([7]; after 1518 hours of exposure): 0.1114
durability (low loss rate absorbance values after exposure) ([7]; in words, summary of the tables of Example 78): especially durable
ε @ λ max [4]: 17,300
λ max nm [4]: 362 nm
